# Read-outs that look alike come from different tables or passages of the source.
# Assays:
# Assay type in all cases: cell-based
# [1] = system: colon cancer cell line HT29; assay: Growth profile / viability of HT29 colon cancer cells, XTT test; settings: Homo sapiens, HT-29, 96 h, Control DMSO = 100%, read-out: percentage of viable cells, HT29
# Protocol: (§1) The effect of the compounds Z522-XXX on the growth profile of cancer cells which express Fer was tested. The cells that were tested were: the colon cancer cell lines HT29 and HCT 116, RKO. The effect of each of the compounds on FS cells, a non malingnant fibroblastic cell line, was also studied.
# (§2) Generally, cells were seeded in 96 wells microplates and were left to grow untreated overnight. Each of the compounds was dissolved in DMSO and was then added to each well in a final concentration of 5 μM. The concentration of DMSO in each well was 0.4% v/v. Untreated cells and cells subjected to 0.4% DMSO alone, served as controls. The percentage of viable cells in each well was determined 96 hours after compounds addition, using the XTT test (Berridge, M. V. et al, 2005).
# [2] = Viability of FS non malignant fibroblastic cells, XTT test; settings: FS cells (non-malignant fibroblastic cell line), Control DMSO = 100%, read-out: percentage of viable cells, FS
# Protocol: as §1, §2
# [3] = system: colon cancer cell line HCT 116; assay: Growth profile / viability of HCT116 colon cancer cells, XTT test; settings: Homo sapiens, HCT-116, 96 h, Control DMSO = 100%, read-out: percentage of viable cells, HCT116
# Protocol: as §1, §2
# [4] = system: colon cancer cell line RKO; assay: Growth profile / viability of RKO colon cancer cells, XTT test; settings: 96 h, Control DMSO = 100%, second RKO column, read-out: percentage of viable cells, RKO
# Protocol: as §1, §2
SMILES,viability at 5 µM ([1]; second HT29 column) [%],"viability at 96 h, 5 µM ([2]; first FS column) [%]","viability at 96 h, 5 µM ([2]; second FS column) [%]",viability at 5 µM ([1]; first HT29 column) [%],viability at 5 µM ([3]; first HCT116 column) [%],viability at 5 µM ([3]; second HCT116 column) [%],viability at 5 µM [4] [%]
"CCN(CC)CCN(CC)C(=O)C1CCN(c2nn3cc(-c4ccc(Cl)cc4)nc3s2)CC1 [Compound Z522-0199, 1-[6-(4-chlorophenyl)imidazo[2,1-b][1,3,4]thiadiazol-2-yl]-N-[2-(diethylamino)ethyl]-N-ethylpiperidine-4-carboxamide]",1,19,21,–,–,–,–
"CN1CCC(N(C)C(=O)C2CCN(c3nn4cc(-c5ccc(Cl)cc5)nc4s3)CC2)CC1 [Compound Z522-0202, 1-[6-(4-chlorophenyl)imidazo[2,1-b][1,3,4]thiadiazol-2-yl]-N-methyl-N-(1-methylpiperidin-4-yl)piperidine-4-carboxamide]",0,73,69,1,5,–,–
CN(C)CCN1CCN(C(=O)C2CCN(c3nn4cc(-c5ccc(Cl)cc5)nc4s3)CC2)CC1 [Compound Z522-0206],–,2,6,–,1,–,–
"CN1CCC(N2CCN(C(=O)C3CCN(c4nn5cc(-c6ccc(Cl)cc6)nc5s4)CC3)CC2)CC1 [Compound Z522-0207, 6-(4-chlorophenyl)-2-(4-{[4-(1-methylpiperidin-4-yl)piperazin-1-yl]carbonyl}piperidin-1-yl)imidazo[2,1-b][1,3,4]thiadiazole]",0,3,16,3,0,4,–
"O=C(C1CCN(c2nn3cc(-c4ccc(Cl)cc4)nc3s2)CC1)N1CCCCC1CCN1CCOCC1 (stereo not drawn) [Compound Z522-0211, 6-(4-chlorophenyl)-2-(4-{[2-(2-morpholin-4-ylethyl)piperidin-1-yl]carbonyl}piperidin-1-yl)imidazo[2,1-b][1,3,4]thiadiazole]",60,75,81,64,72,61,–
"O=C(C1CCN(c2nn3cc(-c4ccc(Cl)cc4)nc3s2)CC1)N1CCCCC1CN1CCCC1 (stereo not drawn) [Compound Z522-0212, 6-(4-chlorophenyl)-2-(4-{[2-(pyrrolidin-1-ylmethyl)piperidin-1-yl]carbonyl}piperidin-1-yl)imidazo[2,1-b][1,3,4]thiadiazole]",0,–,1,1,2,–,–
"CN(C)CCNC(=O)CN1CCN(C(=O)C2CCN(c3nn4cc(-c5ccc(Cl)cc5)nc4s3)CC2)CC1 [Compound Z522-0218, 2-[4-({1-[6-(4-chlorophenyl)imidazo[2,1-b][1,3,4]thiadiazol-2-yl]piperidin-4-yl}carbonyl)piperazin-1-yl]-N-[2-(dimethylamino)ethyl] acetamide]",4,82,84,3,51,19,–
"CN(C)CCN(Cc1ccco1)C(=O)C1CCN(c2nn3cc(-c4ccc(Cl)cc4)nc3s2)CC1 [Compound Z522-0220, 1-[6-(4-chlorophenyl)imidazo[2,1-b][1,3,4]thiadiazol-2-yl]-N-[2-(dimethylamino)ethyl]-N-(2-furylmethyl)piperidine-4-carboxamide]",–,61,49,0,1,3,–
"CCN1CCN(CC2CCN(C(=O)C3CCN(c4nn5cc(-c6ccc(Cl)cc6)nc5s4)CC3)CC2)CC1 [Compound Z522-0221, 6-(4-chlorophenyl)-2-[4-({4-[(4-ethylpiperazin-1-yl)methyl]piperidin-1-yl}carbonyl)piperidin-1-yl]imidazo[2,1-b][1,3,4]thiadiazole]",–,–,–,–,1,1,–
"CCN(CC)CCN(CC)C(=O)C1CCN(c2nn3cc(-c4ccc(C(C)C)cc4)nc3s2)CC1 [Compound Z522-0222, N-[2-(diethylamino)ethyl]-N-ethyl-1-[6-(4-isopropylphenyl)imidazo[2,1-b][1,3,4]thiadiazol-2-yl]piperidine-4-carboxamide]",–,56,56,–,1,–,–
"CC(C)c1ccc(-c2cn3nc(N4CCC(C(=O)N5CCCN(C)CC5)CC4)sc3n2)cc1 [Compound Z522-0224, 6-(4-isopropylphenyl)-2-{4-[(4-methyl-1,4-diazepan-1-yl)carbonyl]piperidin-1-yl}imidazo[2,1-b][1,3,4]thiadiazole]",0,60,67,0,0,–,–
"CC(C)c1ccc(-c2cn3nc(N4CCC(C(=O)N(C)C5CCN(C)CC5)CC4)sc3n2)cc1 [Compound Z522-0225, 1-[6-(4-isopropylphenyl)imidazo[2,1-b][1,3,4]thiadiazol-2-yl]-N-methyl-N-(1-methylpiperidin-4-yl)piperidine-4-carboxamide]",–,65,28,–,1,0,–
"CC(C)c1ccc(-c2cn3nc(N4CCC(C(=O)N5CCN(C6CCN(C)CC6)CC5)CC4)sc3n2)cc1 [Compound Z522-0230, 6-(4-isopropylphenyl)-2-(4-{[4-(1-methylpiperidin-4-yl)piperazin-1-yl]carbonyl}piperidin-1-yl)imidazo[2,1-b][1,3,4]thiadiazole]",–,22,39,–,2,0,–
"CC(C)c1ccc(-c2cn3nc(N4CCC(C(=O)N5CCCCC5CCN5CCOCC5)CC4)sc3n2)cc1 (stereo not drawn) [Compound Z522-0234, 6-(4-isopropylphenyl)-2-(4-{[2-(2-morpholin-4-ylethyl)piperidin-1-yl]carbonyl}piperidin-1-yl)imidazo[2,1-b][1,3,4]thiadiazole]",7,62,105,12,60,54,–
"CC(C)c1ccc(-c2cn3nc(N4CCC(C(=O)N5CCCCC5CN5CCCC5)CC4)sc3n2)cc1 (stereo not drawn) [Compound Z522-0235, 6-(4-isopropylphenyl)-2-(4-{[2-(pyrrolidin-1-ylmethyl)piperidin-1-yl]carbonyl}piperidin-1-yl)imidazo[2,1-b][1,3,4]thiadiazole]",–,–,14,–,1,1,–
"CCN1CCN(CC2CCN(C(=O)C3CCN(c4nn5cc(-c6ccc(C(C)C)cc6)nc5s4)CC3)CC2)CC1 [Compound Z522-0244, 2-[4-({4-[(4-ethylpiperazin-1-yl)methyl]piperidin-1-yl}carbonyl)piperidin-1-yl]-6-(4-isopropylphenyl) imidazo[2,1-b][1,3,4]thiadiazole]",0,–,–,1,–,0,0
